Source: patent US20230159467A1, “NOVEL COMPOUNDS USEFUL IN THE TREATMENT AND/OR PREVENTION OF A DISEASE, DISORDER OR CONDITION ASSOCIATED WITH ANGIOTENSIN II” (Vicore Pharma AB, priority 2020, published 2023)
Converted amounts (≈) assume the structure as drawn.

Assays:
[1] = tested on: CYP3A; assay: CYP450 inhibition assay, pooled human liver microsomes, testosterone substrate; conditions: both, human, pooled human liver microsomes, pH 7.4, probe testosterone, CYP 450 Inhibition CYP3A testosterone, at 10 μM
Experimental: The compound was tested at a single concentration (10 μM) with 0.1% DMSO. […] The reaction was initiated by adding a NADPH-generating system. The reaction was allowed for 10 min and stopped by transferring the reaction mixture to acetonitrile/methanol. Samples were mixed and centrifuged. Supernatants were used for HPLC-MS/MS of the respective metabolite. The activity of human cytochrome P450 (CYP) enzymes were determined by following the formation of a metabolite of the probe substrate. The following enzymes were evaluated for inhibition using the listed reference substrates and reference inhibitors:
CYP1A—phenacetin (reference inhibitor furafylline), CYP2B6—bupropion (reference inhibitor clopidogre), CYP2C8-amodiaquine (reference inhibitor montelukast), CYP2C9—diclofenac (reference inhibitor sulfaphenazole), CYP2C19—omeprazole (reference inhibitor oxybutynin), CYP2D6—dextromethorphan (reference inhibitor quinidine), CYP3A—midazolam (reference inhibitor ketoconazol) and CYP3A—testosterone (reference inhibitor ketoconazol). The reference inhibitors were tested in each assay at multiple concentrations to obtain an IC50 value. Peak areas corresponding to the metabolite were recorded. The percent of control activity was calculated by comparing the peak area in the presence of the test compound to the control samples containing the same solvent. Subsequently, the percent inhibition was calculated by subtracting the percent control activity from 100. The IC50 value (concentration causing a half-maximal inhibition of the control value) was determined by non-linear regression analysis of the concentration-response curve using the Hill equation.

[2] = Kinetic solubility in PBS pH 7.4; type: physicochemical; conditions: Dulbecco's PBS buffer, aqueous buffer, kinetic from dmso stock; PBS pH 7.4, 24 h room temperature, 2% DMSO
Experimental: Kinetic solubility. Dulbecco's PBS buffer was used (NaCl 137 mM, KCl 2.7 mM, Na2HPO4 8.1 mM, KH2PO4 1.5 mM with pH 7.4). The test compound is prepared at 200 μM in the PBS buffer from a 10 mM DMSO stock solution. The final DMSO concentration is 2%. The buffer samples were mixed thoroughly followed by incubation at room temperature for 24 h. At the end of the incubation, the buffer samples were centrifuged and supernatants were then injected for the HPLC analysis. A calibration standard of the test compound was prepared at 200 μM in methanol/water (3/2, v/v) from a 10 mM DMSO stock solution on the day of HPLC analysis. The analysis was conducted by HPLC-UV/VIS with photodiode array detection, with monitoring at 205, 230, 260, and 300 nm wavelengths. The HPLC system consisted of a C18 column using a gradient of A and B (A=12 mM ammonium formate, 6 mM formic acid in water, pH 4.0, B=6 mM ammonium formate, 3 mM formic acid acetonitrile/water (9/1, v/v)). Reference compounds used were metoprolol, rifampicin, ketoconazole, phenytoin, haloperidol, simvastatin, diethylstilbestrol, and tamoxifen, ranking from fully soluble (200 μM) to poorly soluble (<1μM). […] The range of the assay was approximately 0.5 μM to 200 μM. The chromatographic purity (%) was determined as the peak area of the principal peak relative to the total integrated peak areas in the HPLC chromatogram of the calibration standard.

[3] = biological target: T1, CYP2C8 (Homo sapiens, UniProt P10632); assay: CYP450 inhibition assay, pooled human liver microsomes, amodiaquine substrate; conditions: for inhibition at 10 min, 10 µM: both, human, pooled human liver microsomes, pH 7.4, probe amodiaquine; for CYP 450 Inhibition CYP2C8: at 10 μM
T1 sequence (P10632 1-490): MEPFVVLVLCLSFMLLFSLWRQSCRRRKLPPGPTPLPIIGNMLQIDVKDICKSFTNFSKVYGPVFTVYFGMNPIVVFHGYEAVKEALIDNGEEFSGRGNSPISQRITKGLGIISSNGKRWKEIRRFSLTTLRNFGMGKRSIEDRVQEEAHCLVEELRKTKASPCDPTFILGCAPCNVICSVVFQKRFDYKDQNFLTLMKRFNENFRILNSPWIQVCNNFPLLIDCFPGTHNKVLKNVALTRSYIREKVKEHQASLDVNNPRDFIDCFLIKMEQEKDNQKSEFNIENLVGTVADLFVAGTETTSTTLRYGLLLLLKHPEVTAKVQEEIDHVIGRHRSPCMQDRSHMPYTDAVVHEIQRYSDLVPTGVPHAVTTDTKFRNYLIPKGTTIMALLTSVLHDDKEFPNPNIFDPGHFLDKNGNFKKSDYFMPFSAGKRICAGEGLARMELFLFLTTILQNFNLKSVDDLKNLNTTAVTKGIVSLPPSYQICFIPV

[4] = biological target: CYP2C19 (Homo sapiens, UniProt P33261); assay: CYP450 inhibition assay, pooled human liver microsomes, omeprazole substrate; conditions: for inhibition at 10 min, 10 µM: both, human, pooled human liver microsomes, pH 7.4, probe omeprazole; for CYP 450 Inhibition CYP2C19: at 10 μM
Sequence of CYP2C19 (P33261 whole entry): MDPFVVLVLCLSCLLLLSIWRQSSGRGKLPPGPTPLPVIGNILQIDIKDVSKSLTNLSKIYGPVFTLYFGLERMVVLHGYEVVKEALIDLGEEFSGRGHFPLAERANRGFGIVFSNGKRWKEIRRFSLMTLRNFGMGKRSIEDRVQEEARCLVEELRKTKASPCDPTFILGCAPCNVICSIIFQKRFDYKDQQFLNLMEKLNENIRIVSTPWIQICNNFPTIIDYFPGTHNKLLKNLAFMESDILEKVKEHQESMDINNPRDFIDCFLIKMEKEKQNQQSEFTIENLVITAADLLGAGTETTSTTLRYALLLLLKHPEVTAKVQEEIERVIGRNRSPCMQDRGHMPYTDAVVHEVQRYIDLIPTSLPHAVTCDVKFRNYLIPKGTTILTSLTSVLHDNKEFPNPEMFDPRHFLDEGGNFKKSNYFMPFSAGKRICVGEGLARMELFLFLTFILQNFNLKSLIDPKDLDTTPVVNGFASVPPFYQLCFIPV

Row | inhibition at 10 min, 10 µM [1] [%] | solubility kinetic at 24 h [2] [µM] | inhibition at 10 min, 10 µM [3] [%] | inhibition at 10 min, 10 µM [4] [%] | CYP 450 Inhibition CYP2C8 [3] [%] | CYP 450 Inhibition CYP2C19 [4] [%] | Compound
1 | 14 | 140 (≈ 67.7 µg/mL) | 67 | 38 | – | – | COC(=O)NS(=O)(=O)c1ccc(CC(C)C)cc1-c1ccc(Cn2ccnc2C(C)(C)C)cc1 [Example 1A, Methyl ((4′-((2-(tert-butyl)-1H-imidazol-1-yl)methyl)-5-isobutyl-[1,1′-biphenyl]-2-yl)sulfonyl)carbamate]
2 | 2.7 | 195 (≈ 95.7 µg/mL) | – | – | 26 | 38 | COC(=O)NS(=O)(=O)c1sc(CC(C)C)nc1-c1ccc(Cn2ccnc2C(C)(C)C)cc1 [Example 3, Methyl ((4-(4-((2-(tert-butyl)-1H-imidazol-1-yl)methyl)phenyl)-2-isobutylthiazol-5-yl)sulfonyl) carbamate]
3 | 7.5 | 180 (≈ 95.9 µg/mL) | – | – | 70 | 66 | CCCCOC(=O)NS(=O)(=O)c1sc(CC(C)C)nc1-c1ccc(Cn2ccnc2C(C)(C)C)cc1 [Example 4, Butyl ((4-(4-((2-(tert-butyl)-1H-imidazol-1-yl)methyl)phenyl)-2-isobutylthiazol-5-yl)sulfonyl) carbamate]
4 | 10.7 | > 200 | 64 | 45 | – | – | COC(=O)[N-]S(=O)(=O)c1ccc(CC(C)C)cc1-c1ccc(Cn2ccnc2C(C)(C)O)cc1.[K+] [Example 8B, Potassium ((4′-((2-(2-hydroxypropan-2-yl)-1H-imidazol-1-yl)methyl)-5-isobutyl-[1,1′-biphenyl]-2-yl)sulfonyl)(methoxycarbonyl)amide]

Row | Compound | inhibition at 10 min, 10 µM [1] [%] | solubility kinetic at 24 h [2] [µM] | inhibition at 10 min, 10 µM [3] [%] | inhibition at 10 min, 10 µM [4] [%] | CYP 450 Inhibition CYP2C8 [3] [%] | CYP 450 Inhibition CYP2C19 [4] [%]
5 | CCCCOC(=O)[N-]S(=O)(=O)c1sc(CC(C)C)cc1-c1ccc(Cn2ccnc2C(C)(C)C)cc1.[K+] [Example 11B, Potassium (butoxycarbonyl)((3-(4-((2-(tert-butyl)-1H-imidazol-1-yl)methyl)phenyl)-5-isobutylthiophen-2-yl)sulfonyl)amide] | 21 | > 200 | 81 | 66 | – | –
